Active and inactive are the calls of the source. The rule behind the calls is not given here.
Key:
HMEC-1 = experiment: Antiangiogenic activity in VEGF-stimulated HMEC1 assessed as reduction in tube nodes after 16 hrs by photographic analysis; format: functional; details: Homo sapiens
[1] = biological target: Receptor-interacting serine/threonine-protein kinase 2 (Homo sapiens) (UniProt O43353); experiment: Inhibition of RIPK2 assessed as residual activity at 10 uM by radioactivity assay in presence of 20 uM ATP
Sequence of Receptor-interacting serine/threonine-protein kinase 2 (Homo sapiens) (O43353 whole entry): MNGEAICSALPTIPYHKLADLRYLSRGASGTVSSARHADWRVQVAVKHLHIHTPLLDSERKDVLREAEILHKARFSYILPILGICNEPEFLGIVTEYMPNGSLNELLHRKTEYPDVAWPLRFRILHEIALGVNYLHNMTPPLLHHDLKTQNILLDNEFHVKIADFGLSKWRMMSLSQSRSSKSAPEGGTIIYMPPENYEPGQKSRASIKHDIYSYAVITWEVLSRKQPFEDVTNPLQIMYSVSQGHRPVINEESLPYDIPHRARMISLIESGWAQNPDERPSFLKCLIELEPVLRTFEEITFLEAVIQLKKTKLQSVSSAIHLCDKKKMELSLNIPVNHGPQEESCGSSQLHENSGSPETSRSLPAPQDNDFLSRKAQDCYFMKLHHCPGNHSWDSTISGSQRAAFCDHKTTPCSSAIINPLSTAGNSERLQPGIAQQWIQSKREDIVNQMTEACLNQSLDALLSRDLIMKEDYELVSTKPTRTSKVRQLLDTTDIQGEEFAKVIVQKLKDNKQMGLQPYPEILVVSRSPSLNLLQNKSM

HCC 2998 = experiment: Cytotoxicity against human HCC2998 cells; format: functional
[2] = biological target: Ribosomal protein S6 kinase alpha-3 (Homo sapiens) (UniProt P51812); experiment: Inhibition of RSK2 assessed as residual activity at 10 uM by radioactivity assay in presence of 50 uM ATP
[3] = biological target: Ephrin type-A receptor 4 (Homo sapiens) (UniProt P54764); experiment: Inhibition of EPHA4 assessed as residual activity at 10 uM by radioactivity assay in presence of 50 uM ATP
KM12 = experiment: Cytotoxicity against human KM12 cells; format: functional
SNB-75 = experiment: Cytotoxicity against human SNB75 cells; format: functional
[4] = biological target: Inhibitor of nuclear factor kappa-B kinase subunit epsilon (Homo sapiens) (UniProt Q14164); experiment: Inhibition of IKK-epsilon assessed as residual activity at 10 uM by radioactivity assay in presence of 50 uM ATP
A498 = experiment: Cytotoxicity against human A498 cells; format: functional
HOP-62 = experiment: Cytotoxicity against human HOP62 cells; format: functional
[5] = biological target: Mitogen-activated protein kinase 9 (Homo sapiens) (UniProt P45984); experiment: Inhibition of JNK2alpha2 assessed as residual activity at 10 uM by radioactivity assay in presence of 20 uM ATP
Sequence of Mitogen-activated protein kinase 9 (Homo sapiens) (P45984 whole entry, looked up): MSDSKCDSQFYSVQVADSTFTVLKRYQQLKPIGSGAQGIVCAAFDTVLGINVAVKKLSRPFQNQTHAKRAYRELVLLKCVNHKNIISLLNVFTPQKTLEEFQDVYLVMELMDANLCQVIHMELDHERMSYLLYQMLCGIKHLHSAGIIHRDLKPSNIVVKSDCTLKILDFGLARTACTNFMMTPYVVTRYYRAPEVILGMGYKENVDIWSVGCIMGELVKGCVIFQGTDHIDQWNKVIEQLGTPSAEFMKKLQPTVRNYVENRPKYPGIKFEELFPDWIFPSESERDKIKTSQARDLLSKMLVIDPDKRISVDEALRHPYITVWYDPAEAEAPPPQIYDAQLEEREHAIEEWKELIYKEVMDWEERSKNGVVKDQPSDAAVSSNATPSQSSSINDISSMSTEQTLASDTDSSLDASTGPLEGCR

[6] = biological target: Serine/threonine-protein kinase BRSK2 (Homo sapiens) (UniProt Q8IWQ3); experiment: Inhibition of BRSK2 assessed as residual activity at 10 uM by radioactivity assay in presence of 50 uM ATP
OVCAR-5 = experiment: Cytotoxicity against human OVCAR5 cells; format: functional
[7] = biological target: Calcium/calmodulin-dependent protein kinase kinase 2 (Homo sapiens) (UniProt Q96RR4); experiment: Inhibition of CAMKKbeta assessed as residual activity at 10 uM by radioactivity assay in presence of 20 uM ATP
Sequence of Calcium/calmodulin-dependent protein kinase kinase 2 (Homo sapiens) (Q96RR4 2-588 limits assumed): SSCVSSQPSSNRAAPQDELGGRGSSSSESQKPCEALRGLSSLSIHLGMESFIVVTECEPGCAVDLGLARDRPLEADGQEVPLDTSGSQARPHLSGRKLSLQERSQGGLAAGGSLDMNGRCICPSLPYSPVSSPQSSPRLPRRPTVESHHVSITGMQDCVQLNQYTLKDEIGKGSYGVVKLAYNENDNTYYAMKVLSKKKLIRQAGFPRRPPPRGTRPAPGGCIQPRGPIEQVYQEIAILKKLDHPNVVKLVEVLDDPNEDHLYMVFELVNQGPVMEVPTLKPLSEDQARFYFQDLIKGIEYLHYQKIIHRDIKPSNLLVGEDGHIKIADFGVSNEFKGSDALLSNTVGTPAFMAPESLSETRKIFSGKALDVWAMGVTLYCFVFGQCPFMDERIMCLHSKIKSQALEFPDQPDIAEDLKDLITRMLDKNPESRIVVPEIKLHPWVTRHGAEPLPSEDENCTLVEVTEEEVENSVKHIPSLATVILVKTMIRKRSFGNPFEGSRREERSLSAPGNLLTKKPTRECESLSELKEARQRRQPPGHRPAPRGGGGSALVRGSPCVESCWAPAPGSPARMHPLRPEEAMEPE

MCF7 [8] = experiment: Cytotoxicity against human MCF7 cells; format: functional
K562 = experiment: Cytotoxicity against human K562 cells; format: functional
[9] = biological target: Cyclin-dependent kinase 9 (Homo sapiens) (UniProt P50750); experiment: Inhibition of CDK9-catalyzed RNA polymerase 2 phosphorylation at Ser2 in human HMEC1 cells after 2 hrs by immunoblotting; format: cell-based
HUVEC [10] = experiment: Antiproliferative activity against HUVEC cells assessed as decrease in cell viability at 10 to 40 uM within 72 hrs by calcein AM staining-based fluorescence assay; details: human
[11] = biological target: Cyclin-dependent kinase 7 (Homo sapiens) (UniProt P50613); experiment: Inhibition of CDK7-catalyzed RNA polymerase 2 phosphorylation at Ser5 in human MCF7 cells at 5 to 40 uM after 2 hrs by immunoblotting; format: cell-based
[12] = biological target: Serine/threonine-protein kinase pim-2 (Homo sapiens) (UniProt Q9P1W9); experiment: Inhibition of PIM2 assessed as residual activity at 10 uM by radioactivity assay in presence of 5 uM ATP
[13] = biological target: Fibroblast growth factor receptor 1 (Homo sapiens) (UniProt P11362); experiment: Inhibition of FGF-R1 assessed as residual activity at 10 uM by radioactivity assay in presence of 20 uM ATP
[14] = Antiproliferative activity against HMEC1 cells assessed as decrease in cell viability at 10 to 40 uM within 72 hrs by calcein AM staining-based fluorescence assay; details: human, hmec-1, 72 h
[15] = biological target: Maternal embryonic leucine zipper kinase (Homo sapiens) (UniProt Q14680); experiment: Inhibition of MELK assessed as residual activity at 10 uM by radioactivity assay in presence of 50 uM ATP
Sequence of Maternal embryonic leucine zipper kinase (Homo sapiens) (Q14680 whole entry, looked up): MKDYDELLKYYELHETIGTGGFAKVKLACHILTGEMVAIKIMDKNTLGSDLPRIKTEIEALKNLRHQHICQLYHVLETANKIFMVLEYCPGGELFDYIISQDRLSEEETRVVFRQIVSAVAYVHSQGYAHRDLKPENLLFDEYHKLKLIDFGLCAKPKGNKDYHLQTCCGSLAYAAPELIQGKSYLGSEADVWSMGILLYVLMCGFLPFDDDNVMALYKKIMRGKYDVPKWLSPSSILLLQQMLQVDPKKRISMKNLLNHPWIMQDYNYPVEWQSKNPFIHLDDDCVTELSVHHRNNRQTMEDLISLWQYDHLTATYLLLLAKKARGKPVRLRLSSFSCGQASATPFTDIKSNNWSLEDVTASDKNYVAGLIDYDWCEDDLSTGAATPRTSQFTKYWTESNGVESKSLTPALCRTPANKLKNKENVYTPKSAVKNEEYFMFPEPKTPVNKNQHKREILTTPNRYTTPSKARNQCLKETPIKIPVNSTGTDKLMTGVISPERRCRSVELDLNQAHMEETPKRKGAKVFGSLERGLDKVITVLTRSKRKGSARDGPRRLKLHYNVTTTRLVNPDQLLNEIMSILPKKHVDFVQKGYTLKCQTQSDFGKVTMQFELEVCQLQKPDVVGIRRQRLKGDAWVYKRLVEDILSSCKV

[16] = biological target: Ribosomal protein S6 kinase alpha-1 (Homo sapiens) (UniProt Q15418); experiment: Inhibition of RSK1 assessed as residual activity at 10 uM by radioactivity assay in presence of 50 uM ATP
[17] = biological target: Tyrosine-protein kinase SYK (Homo sapiens) (UniProt P43405); experiment: Inhibition of SYK assessed as residual activity at 10 uM by radioactivity assay in presence of 20 uM ATP
[18] = biological target: NUAK family SNF1-like kinase 1 (Homo sapiens) (UniProt O60285); experiment: Inhibition of NUAK1 assessed as residual activity at 10 uM by radioactivity assay in presence of 20 uM ATP
Sequence of NUAK family SNF1-like kinase 1 (Homo sapiens) (O60285 whole entry): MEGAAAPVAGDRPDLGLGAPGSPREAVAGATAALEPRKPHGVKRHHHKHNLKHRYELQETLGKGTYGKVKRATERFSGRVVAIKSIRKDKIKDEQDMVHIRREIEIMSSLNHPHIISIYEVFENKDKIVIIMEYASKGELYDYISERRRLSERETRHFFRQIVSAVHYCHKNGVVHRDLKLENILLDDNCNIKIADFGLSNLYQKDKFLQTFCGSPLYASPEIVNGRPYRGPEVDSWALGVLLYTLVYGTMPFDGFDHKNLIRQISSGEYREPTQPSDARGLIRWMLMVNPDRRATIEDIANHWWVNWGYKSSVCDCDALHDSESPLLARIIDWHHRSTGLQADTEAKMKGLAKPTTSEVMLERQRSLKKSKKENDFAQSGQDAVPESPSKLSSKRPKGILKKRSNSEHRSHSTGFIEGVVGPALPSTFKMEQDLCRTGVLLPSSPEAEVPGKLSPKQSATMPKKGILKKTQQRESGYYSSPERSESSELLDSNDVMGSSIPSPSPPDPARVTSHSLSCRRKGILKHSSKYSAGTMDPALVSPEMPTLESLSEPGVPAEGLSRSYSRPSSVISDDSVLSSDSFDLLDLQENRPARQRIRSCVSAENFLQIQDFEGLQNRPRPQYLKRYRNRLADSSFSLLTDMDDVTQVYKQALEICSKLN

SNB-19 = experiment: Cytotoxicity against human SNB19 cells; format: functional
EKVX = experiment: Cytotoxicity against human EKVX cells; format: functional
[19] = biological target: Casein kinase I isoform delta (Homo sapiens) (UniProt P48730); experiment: Inhibition of CK1delta assessed as residual activity at 10 uM by radioactivity assay in presence of 20 uM ATP
Sequence of Casein kinase I isoform delta (Homo sapiens) (P48730 whole entry, looked up, canonical isoform): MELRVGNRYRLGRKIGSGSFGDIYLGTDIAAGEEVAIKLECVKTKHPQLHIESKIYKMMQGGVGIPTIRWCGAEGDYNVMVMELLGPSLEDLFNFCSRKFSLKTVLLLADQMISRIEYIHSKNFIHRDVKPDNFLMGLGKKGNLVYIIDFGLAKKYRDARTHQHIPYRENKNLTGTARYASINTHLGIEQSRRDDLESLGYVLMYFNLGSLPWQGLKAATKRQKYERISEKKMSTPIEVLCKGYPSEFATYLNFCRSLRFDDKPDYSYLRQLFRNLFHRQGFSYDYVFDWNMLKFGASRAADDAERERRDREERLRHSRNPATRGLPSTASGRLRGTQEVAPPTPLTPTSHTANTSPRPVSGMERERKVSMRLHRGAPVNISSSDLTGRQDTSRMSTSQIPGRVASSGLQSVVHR

MCF7 [20] = experiment: Decrease in VEGF expression in human MCF7 cells at >10 uM after 24 hrs by sandwich ELISA; format: functional, cell-based
[21] = biological target: Serine/threonine-protein kinase Nek2 (Homo sapiens) (UniProt P51955); experiment: Inhibition of NEK2a assessed as residual activity at 10 uM by radioactivity assay in presence of 50 uM ATP
MDA-MB-231 = experiment: Cytotoxicity against human MDA-MB-231 cells; format: functional
[22] = biological target: Serine/threonine-protein kinase BRSK1 (Homo sapiens) (UniProt Q8TDC3); experiment: Inhibition of BRSK1 assessed as residual activity at 10 uM by radioactivity assay in presence of 20 uM ATP
HUVEC [23] = experiment: Antiproliferative activity against HUVEC cells assessed as decrease in cell viability at >50 uM within 72 hrs by calcein AM staining-based fluorescence assay; details: human
[24] = biological target: Mitogen-activated protein kinase 11 (Homo sapiens) (UniProt Q15759); experiment: Inhibition of p38beta MAPK assessed as residual activity at 10 uM by radioactivity assay in presence of 20 uM ATP
Sequence of Mitogen-activated protein kinase 11 (Homo sapiens) (Q15759 whole entry): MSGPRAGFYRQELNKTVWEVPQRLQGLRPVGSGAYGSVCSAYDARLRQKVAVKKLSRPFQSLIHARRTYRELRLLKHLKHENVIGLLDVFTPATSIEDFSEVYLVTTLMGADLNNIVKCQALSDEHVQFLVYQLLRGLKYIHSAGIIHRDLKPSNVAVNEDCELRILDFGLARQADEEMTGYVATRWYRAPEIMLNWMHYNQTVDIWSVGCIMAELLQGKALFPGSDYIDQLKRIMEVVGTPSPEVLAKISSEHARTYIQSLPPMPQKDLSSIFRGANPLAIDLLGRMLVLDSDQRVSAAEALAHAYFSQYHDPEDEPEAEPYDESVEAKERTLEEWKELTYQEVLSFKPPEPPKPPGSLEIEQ

MOLT-4 = experiment: Cytotoxicity against human MOLT4 cells; format: functional
U-251 = experiment: Cytotoxicity against human U251 cells; format: functional
[25] = biological target: Tyrosine-protein kinase JAK2 (Homo sapiens) (UniProt O60674); experiment: Inhibition of JAK2 assessed as residual activity at 10 uM by radioactivity assay in presence of 5 uM ATP
Sequence of Tyrosine-protein kinase JAK2 (Homo sapiens) (O60674 whole entry): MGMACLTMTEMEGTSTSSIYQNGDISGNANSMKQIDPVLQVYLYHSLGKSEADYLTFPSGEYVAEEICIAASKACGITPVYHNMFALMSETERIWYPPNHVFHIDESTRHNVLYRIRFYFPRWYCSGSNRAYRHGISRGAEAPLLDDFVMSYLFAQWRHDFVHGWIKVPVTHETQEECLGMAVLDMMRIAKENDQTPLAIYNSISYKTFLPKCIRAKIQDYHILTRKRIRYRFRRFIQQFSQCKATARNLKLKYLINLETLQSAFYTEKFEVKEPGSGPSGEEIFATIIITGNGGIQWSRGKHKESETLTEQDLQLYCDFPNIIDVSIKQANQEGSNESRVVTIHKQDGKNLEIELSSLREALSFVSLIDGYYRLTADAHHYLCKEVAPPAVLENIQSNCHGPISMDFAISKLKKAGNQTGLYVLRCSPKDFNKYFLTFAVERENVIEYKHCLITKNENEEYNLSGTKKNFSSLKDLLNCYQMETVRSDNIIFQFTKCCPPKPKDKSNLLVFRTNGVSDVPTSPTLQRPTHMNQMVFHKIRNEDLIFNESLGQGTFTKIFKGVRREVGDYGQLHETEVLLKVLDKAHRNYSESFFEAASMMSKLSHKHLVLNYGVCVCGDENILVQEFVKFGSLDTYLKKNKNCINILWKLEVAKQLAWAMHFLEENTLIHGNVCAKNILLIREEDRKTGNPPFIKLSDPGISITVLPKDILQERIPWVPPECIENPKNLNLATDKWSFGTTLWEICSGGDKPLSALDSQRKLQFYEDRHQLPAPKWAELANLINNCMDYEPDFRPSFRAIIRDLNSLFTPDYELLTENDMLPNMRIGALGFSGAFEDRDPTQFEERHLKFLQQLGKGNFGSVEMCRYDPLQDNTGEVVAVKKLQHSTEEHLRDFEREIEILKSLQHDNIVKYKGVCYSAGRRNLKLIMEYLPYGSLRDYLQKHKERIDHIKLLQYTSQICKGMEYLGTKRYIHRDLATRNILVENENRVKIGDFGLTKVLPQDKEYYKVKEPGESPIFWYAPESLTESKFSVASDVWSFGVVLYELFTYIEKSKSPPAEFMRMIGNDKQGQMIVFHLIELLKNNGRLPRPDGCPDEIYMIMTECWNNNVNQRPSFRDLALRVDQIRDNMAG

SR = experiment: Cytotoxicity against human SR cells; format: functional
[26] = biological target: Homeodomain-interacting protein kinase 1 (Homo sapiens) (UniProt Q86Z02); experiment: Inhibition of HIPK1 assessed as residual activity at 10 uM by radioactivity assay in presence of 20 uM ATP
[27] = biological target: Mitogen-activated protein kinase kinase kinase 1 (Homo sapiens) (UniProt Q13233); experiment: Inhibition of MEKK1 assessed as residual activity at 10 uM by radioactivity assay in presence of 20 uM ATP

**Q.** With `Nc1n[nH]c(N)c1/N=N/c1ccc(O)cc1` as the molecule, how does the Activity (HMEC-1) read?
**A.** inactive

**Q.** What about the Activity [1] of the same molecule?
**A.** 57%

**Q.** What about the GI50 (HCC 2998) of the same molecule?
**A.** 29.4 µM

**Q.** And the Activity [2]?
**A.** 96%

**Q.** What about the Activity [3] of the same molecule?
**A.** 93%

**Q.** And the GI50 (KM12)?
**A.** 17.1 µM

**Q.** What about the GI50 (SNB-75) of the same molecule?
**A.** 18.5 µM

**Q.** What about the Activity [4] of the same molecule?
**A.** 45%

**Q.** And the GI50 (A498)?
**A.** 18.2 µM

**Q.** What about the GI50 (HOP-62) of the same molecule?
**A.** 31.8 µM

**Q.** What about the Activity [5] of the same molecule?
**A.** 102%

**Q.** What about the Activity [6] of the same molecule?
**A.** 62%

**Q.** What about the GI50 (OVCAR-5) of the same molecule?
**A.** 23.5 µM

**Q.** What about the Activity [7] of the same molecule?
**A.** 52%

**Q.** And the GI50 (MCF7 [8])?
**A.** 23.5 µM

**Q.** And the GI50 (K562)?
**A.** 9.2 µM

**Q.** What about the inhibition [9] of the same molecule?
**A.** Dose-dependent effect

**Q.** What about the Activity (HUVEC [10]) of the same molecule?
**A.** Non-toxic

**Q.** What about the inhibition [11] of the same molecule?
**A.** Active

**Q.** And the Activity [12]?
**A.** 69%

**Q.** What about the Activity [13] of the same molecule?
**A.** 68%

**Q.** What about the Activity [14] of the same molecule?
**A.** Non-toxic

**Q.** And the Activity [15]?
**A.** 46%

**Q.** And the Activity [16]?
**A.** 93%

**Q.** What about the Activity [17] of the same molecule?
**A.** 94%

**Q.** What about the Activity [18] of the same molecule?
**A.** 40%

**Q.** And the GI50 (SNB-19)?
**A.** 29.9 µM

**Q.** What about the GI50 (EKVX) of the same molecule?
**A.** 22 µM

**Q.** What about the Activity [19] of the same molecule?
**A.** 27%

**Q.** What about the Activity (MCF7 [20]) of the same molecule?
**A.** Active

**Q.** What about the Activity [21] of the same molecule?
**A.** 106%

**Q.** What about the GI50 (MDA-MB-231) of the same molecule?
**A.** 16.7 µM

**Q.** And the Activity [22]?
**A.** 66%

**Q.** And the Activity (HUVEC [23])?
**A.** Non-toxic

**Q.** What about the Activity [24] of the same molecule?
**A.** 102%

**Q.** What about the GI50 (MOLT-4) of the same molecule?
**A.** 13.5 µM

**Q.** And the GI50 (U-251)?
**A.** 21.2 µM

**Q.** And the Activity [25]?
**A.** 19%

**Q.** And the GI50 (SR)?
**A.** 10.3 µM

**Q.** And the Activity [26]?
**A.** 106%

**Q.** What about the Activity [27] of the same molecule?
**A.** 100%

From ChEMBL document CHEMBL1821675, “The selective P-TEFb inhibitor CAN508 targets angiogenesis” (Eur J Med Chem, 2011)
